Patent US20030134774A1, “Methods for inhibiting cardiac disorders” (priority 2001, published 2003)

Legend:
[1] = system: PKCδ and PKCε; assay: Immunoblot of nPKC isoform abundance in cardiomyocytes; assay type: cell-based, rat; conditions: 24 hr stimulation
Procedure: (§1) rPMT selectively activates nPKC isoforms. Cardiomyocyte cultures were incubated in culture medium without or with NE (10 μM), rPMT (400 ng/ml) or PMA (100 nM) for 24 hr (Panels A and C) or 5 min (Panel B). Soluble extracts were prepared and separated by SDS-PAGE followed by immunodetection of total PKC isoform abundance with antibodies that are specific for the individual PKC isoforms (Panel A), or phosphorylated forms of PKC (largely PKCε) with a pan-phospho-PKC antibody (Panels B and C), as described in Methods below. GF109203 was included at 5 μM 30 min prior to stimulation as indicated.
(§2) Cells were maintained in culture in the presence of 10% FCS for 96 hr and then switched to serum-free medium for 24 hr prior to the addition of agonists as indicated. For PKC, extracts were prepared and subjected to SDS-PAGE to resolve individual isoforms according to methods described previously (14).
(§3) Specific immunoreactivity for individual PKC isoforms was quantified according to methods described previously. […] Bands were detected by enhanced chemiluminescence and blots were quantified by laser scanning densitometry.

[2] = system: cardiomyocytes; assay: Protein synthesis ([3H]phenylalanine incorporation) in cardiomyocytes; assay type: cell-based, rat; conditions: rPMT 400 ng/ml or NE 10 μM, 48 hr, serum-free
Procedure: (§4) rPMT mimics the effect of norepinephrine to promote cardiomyocyte hypertrophy. Cardiomyocytes were cultured in serum-free medium without or with rPMT (400 ng/ml) or norepinephrine (NE, 10 μM) for 48 hr. Cardiomyocytes were fixed, permeabilized, and stained with monoclonal anti-α-actinin sarcomeric (Panel A, magnification×100) or subjected to Northern blot analysis for measurements of steady-state ANF mRNA expression (Panel B). Effects of rPMT (black bars) and NE (gray bars) vs. vehicle (white bars) on sarcomeric organization (Panel C), cell size (Panel D), and protein synthesis (Panel E) are illustrated (n=3 for each).
As a second index of cardiomyocyte growth, relative rates of protein synthesis were measured as radiolabeled phenylalanine incorporation into cell protein. Cells were stimulated in serum-free medium with agonists (or vehicle as control) for 48 hr at 37° C. The medium was replaced with serum-free medium containing [^3H]phenylalanine (0.1 μCi/ml) and non-radioactive phenylalanine (0.3 mM, to minimize variations in the specific activity of the precursor pool responsible for protein synthesis) during the final 24 hr of stimulation. Cells were rinsed with PBS and incubated in 10% trichloroacetic acid for 30 min on ice. […] Aliquots of the SDS-soluble protein were counted in 5 ml of scintillant.

[3] = biological target: T1, PKC-ε (Rattus norvegicus, UniProt P09216); assay: Western blot with anti-phospho-PKC antibody in cardiomyocytes; assay type: cell-based; conditions: NE 10 μM or PMA 100 nM for 5 min
T1 construct: PKCε is detected as a single band in quiescent cardiomyocytes; endogenous in cells; host or cells: cultured neonatal rat ventricular cardiomyocytes
T1 sequence (P09216 1-737): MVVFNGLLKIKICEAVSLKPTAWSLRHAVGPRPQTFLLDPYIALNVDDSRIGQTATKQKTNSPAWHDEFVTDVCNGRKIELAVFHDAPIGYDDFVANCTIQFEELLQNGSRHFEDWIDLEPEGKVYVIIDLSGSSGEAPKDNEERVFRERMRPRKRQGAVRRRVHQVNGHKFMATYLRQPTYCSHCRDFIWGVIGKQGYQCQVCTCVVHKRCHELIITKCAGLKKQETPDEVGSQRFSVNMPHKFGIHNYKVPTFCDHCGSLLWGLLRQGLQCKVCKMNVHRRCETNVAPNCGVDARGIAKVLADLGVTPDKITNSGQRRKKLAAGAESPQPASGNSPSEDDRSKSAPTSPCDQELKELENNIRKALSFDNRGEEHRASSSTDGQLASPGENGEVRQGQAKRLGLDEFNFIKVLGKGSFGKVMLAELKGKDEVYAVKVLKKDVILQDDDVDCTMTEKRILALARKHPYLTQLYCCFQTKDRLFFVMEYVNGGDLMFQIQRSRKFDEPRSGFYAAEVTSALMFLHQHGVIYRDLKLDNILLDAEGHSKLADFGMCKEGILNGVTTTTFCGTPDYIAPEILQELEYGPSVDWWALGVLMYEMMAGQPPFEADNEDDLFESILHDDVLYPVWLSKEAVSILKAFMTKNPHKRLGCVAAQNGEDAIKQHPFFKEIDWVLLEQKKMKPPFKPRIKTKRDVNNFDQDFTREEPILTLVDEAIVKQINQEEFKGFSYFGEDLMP
Procedure: as §1
(§5) Specific immunoreactivity for individual PKC isoforms was quantified according to methods described previously. For assays of MAPKs and AKT, cells were exposed to test agents as indicated in individual experimental protocols, washed three times with ice-cold calcium/magnesium-free Dulbecco's PBS (pH 7.1), scraped into ice-cold extraction buffer [20 mM β-glycerophosphate pH 7.5, 20 mM sodium fluoride, 2 mM EDTA, 0.2 mM sodium vanadate, 10 μg/ml aprotinin, 25 μg/ml leupeptin, 50 μg/ml PMSF, and 0.3% (v/v) β-mercaptoethanol], lysed by sonication, and centrifuged at 10,000 g for 10 min at 4° C. The supernatant was diluted in SDS-PAGE sample buffer, boiled for 5 min, and stored at −70° C. Western blot analysis was performed with antibodies that are selective for the phosphorylated (activated) forms of ERK1/2, p38-MAPK, JNK, AKT, and pan-PKC according to manufacturer's instructions. For each panel in each Figure, the results are from a single gel exposed for a uniform duration. Bands were detected by enhanced chemiluminescence and blots were quantified by laser scanning densitometry.

[4] = system: cardiomyocytes; assay: Cardiomyocyte growth: sarcomeric organization and cell size; assay type: cell-based, rat; conditions: rPMT 400 ng/ml or NE 10 μM, 48 hr, serum-free
Procedure: as §4
Cardiomyocyte growth was assessed by measuring cell surface area by digitized image analysis. For each experimental point, 7-10 frames/dish were recorded at 40× magnification with a video camera attached to a Nikon microscope which was calibrated with a micrometer.
Cardiomyocytes were grown on slides precoated with fibronectin. After treatment, cells were fixed with cold methanol and permeabilized with 0.1% Triton X-100 and 0.2% BSA. Cells were incubated with α-actinin monoclonal antibody overnight at 4° C. followed by anti-mouse IgG-Cy3-labeled antibody for 30 min at room temperature. Fluorescence microscopy images were obtained at 100× magnification.

[5] = system: PKCα and PKCλ; assay: Immunoblot of PKCα/PKCλ abundance and distribution in cardiomyocytes; assay type: cell-based, rat; conditions: 24 hr stimulation
Procedure: as §1, §2, §3

[6] = system: AKT; assay: Phospho-AKT and total AKT Western blot in cardiomyocytes; assay type: cell-based, rat; conditions: 5 min; PMA 100 nM, NE 10 μM
Procedure: rPMT decreases basal AKT phosphorylation and prevents its phosphorylation by EGF. Neonatal rat cardiomyocytes were treated with rPMT (400 ng/ml) for 24 hr (Panel A), 48 hr (Panel B) or with EGF (50 ng/ml) for 5 min. Cell lysates were subjected to SDS-PAGE followed by Western blotting with antibodies that recognize the phosphorylated form or total AKT. Data are from representative gels, with similar results obtained in 3 separate experiments.
Panel A: Cells were treated with norepinephrine (NE, 10 μM) or PMA (100 nM) for 5 min without or with GF109203 (5 μM).
Panel B: Cells were treated with rPMT (400 ng/ml), NE (10 μM) or PMA (100 nM) for 24 hr without or with Go6983 (5 μM). […] Cell lysates were subjected to SDS-PAGE followed by Western blotting using a specific anti-phospho-AKT antibody. Data are from representative gels, with similar results obtained in 3 separate culture preparations.
as §5

[7] = system: ANF mRNA; assay: Northern blot analysis of ANF mRNA in cardiomyocytes; assay type: cell-based, rat; conditions: rPMT 400 ng/ml or NE 10 μM, 48 hr, serum-free
Procedure: as §4
Total RNA from neonatal rat cardiomyocytes were isolated by using a Qiagen kit according to manufacturer's instructions. A rat ANF cDNA probe (˜600 bp) was labeled with [^32P]dCTP. 10 μ/g of total RNA was separated on a 1% agarose gel and transferred to a nylon membrane (Amersham). Prehybridization and hybridization were performed according to standard methods. Normalization of signals was performed with a glyceraldehyde-3-phosphate dehydrogenase probe. Signals were detected by Phosphorimage analysis.

[8] = system: cardiomyocytes; assay: Tolerance of cardiomyocytes to prolonged incubation with inhibitor; conditions: prolonged (24 hr) incubations
[9] = system: cardiomyocytes; assay: TUNEL assay of apoptosis in cardiomyocyte cultures; assay type: cell-based, rat; conditions: 500 μM, 24 hr
Procedure: rPMT increases H2O2-induced apoptosis in cardiomyocyte cultures. Cells were treated without or with rPMT (400 ng/ml) for 24 hr followed by H202 (500 μM) for 24 hr. The percentage of cells undergoing apoptosis was measured by TUNEL assay as described in Methods below. Data are from a single experiment and are representative of results obtained on 3 separate culture preparations.
TUNEL staining was performed for detection of apoptotic cells according to manufacturer's instructions (Boehringer). Approximately 500 cardiomyocytes were imaged by fluorescence microscopy and the number of cells that scored TUNEL-positive is presented as a percentage of total.

## NC[C@H](O)c1ccc(O)c(O)c1 [NE, norepinephrine, reference compound]
[1]
  abundance of PKCδ and PKCε in the soluble fraction: significantly reduce
[2]
  [3H]phenylalanine incorporation (protein synthesis): enhance [^3H]phenylalanine incorporation
[3]
  PKC-ε phosphorylation/activation (phospho-PKC band pattern): slower mobility, more-highly phosphorylated species
[4]
  cell size (cellular enlargement): induce marked cellular enlargement
  myofibrillar (sarcomeric) organization: promote myofibrillar organization
[5]
  abundance and subcellular distribution of PKCα and PKCλ: is not altered
[6]
  basal AKT phosphorylation after acute treatment: not
[7]
  ANF mRNA expression: induce ANF mRNA expression

## CC(=O)c1c(O)c(C)c(O)c(Cc2c(O)c3c(c(C(=O)/C=C/c4ccccc4)c2O)OC(C)(C)C=C3)c1O [rottlerin]
[8]
  tolerance of cardiomyocytes to the inhibitor: do not tolerate

## OO [H202, reference compound]
[9]
  apoptosis (TUNEL): induces apoptosis
